Literature values, collected in US20250213469A1, “DOSAGE FORMS OF ACTIVE […] AGAINST VIRAL DISEASES IN DRY POWDER INHALER DEVICE FOR SYMPTOMS CAUSED BY COVID-19 AND OTHER VIRAL LUNG DISEASES” ([…] EGITIM D[…].S., priority 2022, published 2025).

Conditions: C3H/HeN mice, positron emission tomography; literature study of Bocan et al.

NC(=O)c1nc(F)c[nH]c1=O [[^18F] Favipiravir]
tissue retention (biodistribution) of the active substance: retained lowest in the lungs and the most in the kidney, liver and stomach
